Test results as given in patent publication US20090156609A1, “TREATMENT OF POST-TRAUMATIC STRESS DISORDER WITH TETRAHYDROINDOLONE ARYLPIPERZAINE COMPOUNDS” (priority 2007, published 2009).
Read-outs that look alike come from different tables or passages of the source.

How the values were obtained:
C-57 mice = assay: Conditioned avoidance response (CAR) model; type: in vivo
From the text: The Condition Avoidance Responding (CAR, active avoidance) model is a measure of cognitive and attention impairment. It evaluates the disruption of avoidance (increased latency) without disruption of escape (extrapyramidal motor function).
The training of C-57 mice consists of 20 trials with variable inter-trial intervals (trained to 80% Avoidance Criteria). After a one-minute acclimation period, the house light and an acoustic 90 decibel tone (conditioned stimuli) are presented. A response (crossing to dark compartment) within 5 seconds ends the trial and trial is recorded as avoidance response (CAR). […] To avoid shock, animals learn to move from the lighted side of the − chamber to the dark side when the cue is presented (avoidance) or moved when the shock is administered (escape). Compounds that disrupt cognition in the CAR model can be excluded from candidate consideration.
The present compounds were tested in the conditioned avoidance response (CAR) model and in the Spontaneous Activity model described above.

C57/BL6 male mice = assay: Contextual fear conditioning in a passive avoidance model; type: in vivo
Method: The passive avoidance model is an example of a fear conditioning behavior. To perform this test, animals were trained and tested in a Kinder Scientific avoidance system consisting of a shuttle box with a shock grid floor. On day one, mice were introduced to the system by being allowed to move freely between a darkened side and a lighted side of the shuttle box for 3 minutes after a 1 minute acclimation in the dark. Day two (24 hours later) was similar to the first day except that animals received a 1.0 mA foot shock after crossing to the dark compartment. Vehicle or test compounds are administered subcutaneously 30 minutes prior to this training day. Twenty four hours after the training day, animals were put back in the shuttle box and after a minute acclimation period in the dark, the latency to cross from the lighted to the dark compartment (now with the shock off) was recorded.
Response to the development of contextual fear conditioning in an open field model was evaluated in C57/BL6 male mice using an avoidance shuttle chamber (Kinder Scientific, Poway, Calif.). On Day 1, mice were allowed to run through the shuttle box for 3 minutes in order to acclimate them to it. One side was light and the other was dark. One Day 2, animals were dosed subcutaneously […] prior to training. […] The latency to cross to the dark side was recorded, with a 3 minute maximum testing duration.

Male C57 mice = assay: PCP-induced disruption of prepulse inhibition (PPI) of the startle response; type: in vivo; settings: for minimal effective dose: Mus musculus, 20 minutes prior to PCP 5 mg/kg IP, read-out: Effective Dose, Prepulse Inhibition Testing
From the text: The phencyclidine (PCP)-induced disruption of pre-pulse inhibition (PPI) has been used to predict efficacy in cognitive impairment and other disorders. In this test, a weaker auditory prestimulus (prepulse) inhibits the reaction of an test organism to a subsequent strong startle stimulus (pulse). Normal PPI functioning in mammals is critical in filtering out irrelevant sensory information, an inhibitory process that is affected in patients with PTSD. A reduction of the cognitive/attention impairment produced in the PPI model can be used as an efficacy measure for compound candidate selection.
For testing of PPI, male C57 mice can be assigned to five dose groups of eight animals per group, and vehicle or test compound can then be administered orally (PO) or subcutaneously (SC) 20 minutes prior to intraperitoneal (IP) administration of vehicle or PCP (5 mg/kg). Ten minutes following PCP administration, the mice are placed into Hamilton-Kinder startle chambers and evaluation of pre-pulse inhibition procedure is performed. Following a five-minute acclimatization period with background white noise (65 decibels), mice were exposed to five different trial types. Trials were presented […] in a quasi-random order, with randomized 5 to 25 second inter-trial intervals. Trials were: stimulus only trial (120 decibel white noise, 50 ms stimulus); two different prepulse+pulse trials in which a 20 ms 5 decibel, or 10 decibel stimuli above a 65 decibel background preceded the 120 decibel pulse by 120 ms; a 10 decibel prepulse without a 120 decibel pulse; and a no stimulus trial, in which only the background noise was presented.
Compounds which are observed to reduce and/or reverse PCP-induced impairment can be selected as candidates for further evaluation. Such reduction is also indicative of memory enhancement, which is also a positive indicator for further development.
Male C57 mice were assigned to five dose groups of eight animals per group, and vehicle or a test compound was administered orally or subcutaneously 20 minutes prior to intraperitoneal administration of vehicle or PCP (5 mg/kg). Ten minutes following PCP administration, the mice were placed into Kinder Scientific startle chambers (Kinder Scientific, Poway, Calif.) and pre-pulse inhibition was evaluated. Following a five-minute acclimatization period with background white noise (65 dB), mice were exposed to five different trial types. Trials were presented in a quasi-random order, with randomized 5 to 25 second inter-trial intervals. The five different trials (presented 10 times each were): stimulus only trial (120 dB white noise, 50 ms stimulus); two different prepulse+pulse trials in which a 20 ms 5 dB or 10 dB stimulus above a 65 dB background preceded the 120 dB pulse by 120 ms; a 10 dB prepulse without a 120 dB pulse; and a no stimulus trial, in which only the background noise was presented.

[1] = Neuromuscular coordination (rotarod); parameters: species or system mice; settings: male, Swiss Webster (CFW), mouse, in vivo, sc; subcutaneous administration, tested 30 minutes after dosing; read-out: ED50 (ability to remain on the rotarod)
Method: This model can be used to determine the dose of a compound or composition at which unwanted side effects (muscle tone/motor coordination deficits) occur. Animals (C57 Mice) are placed on a rotarod treadmill (model V EE/85, Columbus Instruments, Columbus, Ohio) accelerating from 1 to 80 revolutions/4 minutes. All mice are given two control trials at least 12 hours before oral administration evaluation of compounds. Mice are tested on the rotarod 30 minutes after administration of compounds. The number of seconds each mouse remained on the rotarod is recorded.
Doses at which the coordination of an animal is decreased or at which its motor function is altered, such that the ability of the animal to remain on the rotarod is reduced, are determined. Doses below this are selected for further evaluation.
Male Swiss Webster (CFW) mice were placed on a rotarod (model V EE/85, Columbus Instruments, Columbus, Ohio) accelerating from 1 to 80 revolutions/4 minutes. All mice were given two control trials at least 12 hours before administration of the present compounds for evaluation. Mice were tested on the rotarod 30 minutes after subcutaneous administration of compounds. The number of seconds each mouse remained on the rotarod was recorded. Compounds that decreased coordination or altered motor function reduced the ability of the animal to remain on the rotarod.

- effect in the CAR model compared to vehicle treated mice (C-57 mice; subcutaneous, doses of up to 10 mg/kg): did not produce any effect
Compound: O=C1CCCc2c1ccn2CCN1CCN(c2cccc(Cl)c2)CC1 [Compound A, 1-{2-[4-(3-Chlorophenyl)piperazin-1-yl]ethyl}-1,5,6,7-tetrahydroindol-4-one]
- minimum effective dose, Conditioned Avoidance Response (C-57 mice; models unwanted side effects): >10 mg/kg
- latency to cross over to the dark side compared to vehicle (FIG. 3) (C57/BL6 male mice; dosed subcutaneously 20 minutes prior to training, tested 24 hours later): showed a reduction in latency to cross over to the dark side
- duration of the improvement in latency (C57/BL6 male mice; testing on Days 3-5 post-shock administration): three consecutive days of testing
- minimal effective dose (Male C57 mice; sc, subcutaneous): 3 mg/kg
- minimal effective dose (Male C57 mice; oral): 1 mg/kg
- prepulse inhibition versus control levels (FIG. 1) (Male C57 mice; doses of 10 mg/kg, PCP-induced disruption): inhibition was returned to control levels
- minimum effective dose, Prepulse Inhibition (PPI) (Male C57 mice; reversal of PCP-induced disruption, route not given): 3 mg/kg
- ED50 at 30 min [1]: 23 mg/kg
